Where two headings read alike, the source gives them in different places. Numbered stars: 1 amine (or outer) side, 2 acyl side, 3 side chain; on linkers, the order of the positions; unused ones are H or OH. Square brackets hold non-standard residues; d marks the D form. Side chains are listed from the residue outwards. Peptide text beside a SMILES is read from it. * marks the point of attachment. γGlu = O=C(O)[C@H](CCC(=O)[*:2])N[*:1]; X2 = O=C(CSCC(=O)*)NCCN1C(=O)CSC1=O; Palmitoyl = CCCCCCCCCCCCCCCC(=O)*; Aib = CC(C)(N)C(=O)O Bounds are passed on as bounds.

This is an account of results in patent US20260176320A1, “MODULATORS OF G-PROTEIN COUPLED RECEPTORS” (priority 2018, published 2026).

Assay [1] concerns the target GLP-1R (Homo sapiens, UniProt P43220). Put plainly: HitHunter cAMP assay (GLP-1R). The class given is cell-based. Conditions: cAMP; for Emax: read-out: (Emax) GLP-1R. The procedure, abridged:
(§1)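 Duplicate 22-point, 2-fold agonist titrations applied to receptor-expressing suspension cells in IBMX-containing HBSS; 30 min RT stimulation. Read: luminescent cAMP immunocompetition after O/N dark incubation.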

Assay [2] concerns the target T1, GIP-R (Homo sapiens, UniProt P48546).
T1 sequence (P48546 22-466): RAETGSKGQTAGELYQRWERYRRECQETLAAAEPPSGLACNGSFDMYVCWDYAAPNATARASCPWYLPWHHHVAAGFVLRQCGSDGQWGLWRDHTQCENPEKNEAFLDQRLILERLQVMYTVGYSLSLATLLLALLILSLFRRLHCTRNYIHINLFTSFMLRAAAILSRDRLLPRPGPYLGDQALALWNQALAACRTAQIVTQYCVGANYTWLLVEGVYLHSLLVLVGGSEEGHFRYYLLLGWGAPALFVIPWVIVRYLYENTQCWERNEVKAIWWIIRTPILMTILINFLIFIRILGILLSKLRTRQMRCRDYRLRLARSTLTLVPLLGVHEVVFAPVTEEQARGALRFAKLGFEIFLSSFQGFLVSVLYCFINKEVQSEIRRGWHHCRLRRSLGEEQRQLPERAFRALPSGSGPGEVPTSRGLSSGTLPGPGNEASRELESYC
Put plainly: HitHunter cAMP assay (GIP-R). In kind it is cell-based. The note with it: cAMP; for Emax at 1 µM: read-out: (Emax) GIP-R at 1 μM, Table 3; for Emax: read-out: (Emax) GIP-R. The essentials: as §1

The mark [3] stands for this setting: Table 3, read-out: EC50 GLP-1R/nM.
Setting [4] is: Table 3A, read-out: EC50 GLP-1R/nM.
The mark [5] stands for this setting: Table 3, read-out: EC50 GIP-R/nM.
The mark [6] stands for this setting: Table 3A, read-out: EC50 GIP-R/nM.

GLP-1R, sequence (P43220 24-463): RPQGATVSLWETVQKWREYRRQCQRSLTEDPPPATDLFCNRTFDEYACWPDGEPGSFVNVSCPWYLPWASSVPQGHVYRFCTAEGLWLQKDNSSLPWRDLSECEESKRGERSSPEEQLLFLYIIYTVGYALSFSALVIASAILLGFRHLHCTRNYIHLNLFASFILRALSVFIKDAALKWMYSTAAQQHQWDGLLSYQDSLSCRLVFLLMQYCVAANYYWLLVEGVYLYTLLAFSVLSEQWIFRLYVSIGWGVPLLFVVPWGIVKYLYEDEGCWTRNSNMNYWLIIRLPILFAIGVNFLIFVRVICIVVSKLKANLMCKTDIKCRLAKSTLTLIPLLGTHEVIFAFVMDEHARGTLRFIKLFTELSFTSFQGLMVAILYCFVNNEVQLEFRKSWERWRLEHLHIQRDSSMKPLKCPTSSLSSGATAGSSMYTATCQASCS

As usually defined, the Emax is the greatest response seen or fitted, relative to the assay's reference. For `CC[C@H](C)[C@H](NC(=O)[C@H](CO)NC(=O)[C@H](Cc1ccc(O)cc1)NC(=O)[C@H](CC(=O)O)NC(=O)[C@H](CO)NC(=O)[C@@H](NC(=O)[C@H](Cc1ccccc1)NC(=O)[C@@H](NC(=O)CNC(=O)[C@H](CCC(=O)O)NC(=O)CSCC(=O)NCCN1C(=O)CC(c2ccccc2)C1=O)[C@@H](C)O)[C@@H](C)O)C(=O)N[C@@H](Cc1ccc(O)cc1)C(=O)N[C@@H](CC(C)C)C(=O)N[C@@H](CC(=O)O)C(=O)N[C@@H](CCCCN)C(=O)N[C@@H](CCC(N)=O)C(=O)N[C@@H](C)C(=O)N[C@@H](C)C(=O)NC(C)(C)C(=O)N[C@@H](CCC(=O)O)C(=O)N[C@@H](Cc1ccccc1)C(=O)N[C@H](C(=O)N[C@@H](CC(N)=O)C(=O)N[C@@H](Cc1c[nH]c2ccccc12)C(=O)N[C@@H](CC(C)C)C(=O)N[C@@H](CC(C)C)C(=O)N[C@@H](C)C(=O)NCC(=O)NCC(=O)N1CCC[C@H]1C(=O)N[C@@H](CO)C(=O)N[C@@H](CO)C(=O)NCC(=O)N[C@@H](C)C(=O)N1CCC[C@H]1C(=O)N1CCC[C@H]1C(=O)N1CCC[C@H]1C(=O)N[C@@H](CO)C(=O)N[C@@H](CCCCN)C(N)=O)C(C)C` (mixture of isomers) [Compound 105], the EC50 lay in the range of 10 to 100 nM in assay [1] (EC50 GLP-1R/nM, Table 3); 10 to 100 nM in assay [1] (EC50 GLP-1R/nM, Table 3A); 10 to 100 nM in assay [2] (EC50 GIP-R/nM, Table 3). In addition, the Emax in assay [1] (Table 3) and in assay [1] (Table 3A) was 90% throughout. The Emax at 1 µM in assay [2] was < 10%.

For the compound `CCCCCCCCCCCCCCCC(=O)N[C@@H](CCC(=O)NCCCC[C@H](NC(=O)[C@H](CO)NC(=O)[C@@H]1CCCN1C(=O)[C@@H]1CCCN1C(=O)[C@@H]1CCCN1C(=O)[C@H](C)NC(=O)CNC(=O)[C@H](CO)NC(=O)[C@H](CO)NC(=O)[C@@H]1CCCN1C(=O)CNC(=O)CNC(=O)[C@H](C)NC(=O)[C@H](CC(C)C)NC(=O)[C@H](CC(C)C)NC(=O)[C@H](Cc1c[nH]c2ccccc12)NC(=O)[C@H](CC(N)=O)NC(=O)[C@@H](NC(=O)[C@H](Cc1ccccc1)NC(=O)[C@H](CCC(=O)O)NC(=O)C(C)(C)NC(=O)[C@H](C)NC(=O)[C@H](C)NC(=O)[C@H](CCC(N)=O)NC(=O)[C@H](CCCCN)NC(=O)[C@H](CC(=O)O)NC(=O)[C@H](CC(C)C)NC(=O)[C@H](Cc1ccc(O)cc1)NC(=O)[C@@H](NC(=O)[C@H](CO)NC(=O)[C@H](Cc1ccc(O)cc1)NC(=O)[C@H](CC(=O)O)NC(=O)[C@H](CO)NC(=O)[C@@H](NC(=O)[C@H](Cc1ccccc1)NC(=O)[C@@H](NC(=O)CNC(=O)[C@H](CCC(=O)O)NC(=O)CSCC(=O)NCCN1C(=O)[C@@H]2C=C[C@H]1C2)[C@@H](C)O)[C@@H](C)O)[C@@H](C)CC)C(C)C)C(N)=O)C(=O)O` [Compound 290], the EC50 was < 0.1 nM in assay [1] (EC50 GLP-1R/nM, Table 3A) and 10 to 100 nM in assay [2] (EC50 GIP-R/nM, Table 3A). Also, the Emax was found to be 100% in assay [1] (Table 3A) and 10% in assay [2] (Table 3A).

In the case of `CC[C@H](C)[C@H](NC(=O)[C@H](CO)NC(=O)[C@H](Cc1ccc(O)cc1)NC(=O)[C@H](CC(=O)O)NC(=O)[C@H](CO)NC(=O)[C@@H](NC(=O)[C@H](Cc1ccccc1)NC(=O)[C@@H](NC(=O)CNC(=O)[C@H](CCC(=O)O)NC(=O)C1(C(=O)NCCN2C(=O)CSC2=O)Cc2ccccc2C1)[C@@H](C)O)[C@@H](C)O)C(=O)N[C@@H](Cc1ccc(O)cc1)C(=O)N[C@@H](CC(C)C)C(=O)N[C@@H](CC(=O)O)C(=O)N[C@@H](CCCCN)C(=O)N[C@@H](CCC(N)=O)C(=O)N[C@@H](C)C(=O)N[C@@H](C)C(=O)NC(C)(C)C(=O)N[C@@H](CCC(=O)O)C(=O)N[C@@H](Cc1ccccc1)C(=O)N[C@H](C(=O)N[C@@H](CC(N)=O)C(=O)N[C@@H](Cc1c[nH]c2ccccc12)C(=O)N[C@@H](CC(C)C)C(=O)N[C@@H](CC(C)C)C(=O)N[C@@H](C)C(=O)NCC(=O)NCC(=O)N1CCC[C@H]1C(=O)N[C@@H](CO)C(=O)N[C@@H](CO)C(=O)NCC(=O)N[C@@H](C)C(=O)N1CCC[C@H]1C(=O)N1CCC[C@H]1C(=O)N1CCC[C@H]1C(=O)N[C@@H](CO)C(=O)N[C@@H](CCCCN)C(N)=O)C(C)C` [Compound 124], the EC50 in assay [1] (EC50 GLP-1R/nM, Table 3) is 10 to 100 nM; in assay [1] (EC50 GLP-1R/nM, Table 3A), 10 to 100 nM; in assay [2] (EC50 GIP-R/nM, Table 3) it was > 1000 nM; in assay [2] (read-out: EC50 GIP-R/nM, Table 3A), > 1000 nM. Moreover, the Emax in assay [1] (Table 3) and in assay [1] (Table 3A) was 73% each time. In assay [2], the Emax at 1 µM was 10%.

With `CCCCCCCCCCCCCCCC(=O)N[C@@H](CCC(=O)NCCCC[C@H](NC(=O)[C@H](CO)NC(=O)[C@@H]1CCCN1C(=O)[C@@H]1CCCN1C(=O)[C@@H]1CCCN1C(=O)[C@H](C)NC(=O)CNC(=O)[C@H](CO)NC(=O)[C@H](CO)NC(=O)[C@@H]1CCCN1C(=O)CNC(=O)CNC(=O)[C@H](C)NC(=O)[C@H](CC(C)C)NC(=O)[C@H](CC(C)C)NC(=O)[C@H](Cc1c[nH]c2ccccc12)NC(=O)[C@H](CC(N)=O)NC(=O)[C@@H](NC(=O)[C@H](Cc1ccccc1)NC(=O)[C@H](CCC(=O)O)NC(=O)C(C)(C)NC(=O)[C@H](C)NC(=O)[C@H](C)NC(=O)[C@H](CCC(N)=O)NC(=O)[C@H](CCCCN)NC(=O)[C@H](CC(=O)O)NC(=O)[C@H](CC(C)C)NC(=O)[C@H](Cc1ccc(O)cc1)NC(=O)[C@@H](NC(=O)[C@H](CO)NC(=O)[C@H](Cc1ccc(O)cc1)NC(=O)[C@H](CC(=O)O)NC(=O)[C@H](CO)NC(=O)[C@@H](NC(=O)[C@H](Cc1ccccc1)NC(=O)[C@@H](NC(=O)CNC(=O)[C@H](CCC(=O)O)NC(=O)CCNC(=O)CCCN1C(=O)c2ccccc2C1=O)[C@@H](C)O)[C@@H](C)O)[C@@H](C)CC)C(C)C)C(N)=O)C(=O)O` [Compound 115], the Emax was found to be 91% in assay [1] (Table 3), 91% in assay [1] (Table 3A), 67% in assay [2] (Table 3) and 67% in assay [2] (Table 3A). Moreover, the EC50 in assay [1] (setting [3]), in assay [1] (setting [4]), in assay [2] (setting [5]) and in assay [2] (setting [6]) was 1 to 10 nM each time.

As for `CC[C@H](C)[C@H](NC(=O)[C@H](CO)NC(=O)[C@H](Cc1ccc(O)cc1)NC(=O)[C@H](CC(=O)O)NC(=O)[C@H](CO)NC(=O)[C@@H](NC(=O)[C@H](Cc1ccccc1)NC(=O)[C@@H](NC(=O)CNC(=O)[C@H](CCC(=O)O)NC(=O)CC(=O)NCCCN1C(=O)c2ccccc2C1=O)[C@@H](C)O)[C@@H](C)O)C(=O)N[C@@H](Cc1ccc(O)cc1)C(=O)N[C@@H](CC(C)C)C(=O)N[C@@H](CC(=O)O)C(=O)N[C@@H](CCCCN)C(=O)N[C@@H](CCC(N)=O)C(=O)N[C@@H](C)C(=O)N[C@@H](C)C(=O)NC(C)(C)C(=O)N[C@@H](CCC(=O)O)C(=O)N[C@@H](Cc1ccccc1)C(=O)N[C@H](C(=O)N[C@@H](CC(N)=O)C(=O)N[C@@H](Cc1c[nH]c2ccccc12)C(=O)N[C@@H](CC(C)C)C(=O)N[C@@H](CC(C)C)C(=O)N[C@@H](C)C(=O)NCC(=O)NCC(=O)N1CCC[C@H]1C(=O)N[C@@H](CO)C(=O)N[C@@H](CO)C(=O)NCC(=O)N[C@@H](C)C(=O)N1CCC[C@H]1C(=O)N1CCC[C@H]1C(=O)N1CCC[C@H]1C(=O)N[C@@H](CO)C(=O)N[C@@H](CCCCN)C(N)=O)C(C)C` [Compound 125], the Emax fell in the range of 94 to 100% in assay [1] (Table 3), 94 to 100% in assay [1] (Table 3A), 54 to 60% in assay [2] (Table 3) and 54 to 60% in assay [2] (Table 3A). Besides, the EC50 in assay [1] (setting [3]) was 10 to 100 nM; in assay [1] (setting [4]), 10 to 100 nM; in assay [2] (setting [5]), 1 to 10 nM; in assay [2] (setting [6]), 1 to 10 nM.

`CCCCCCCCCCCCCCCC(=O)N[C@@H](CCC(=O)NCCCC[C@H](NC(=O)[C@H](CO)NC(=O)[C@@H]1CCCN1C(=O)[C@@H]1CCCN1C(=O)[C@@H]1CCCN1C(=O)[C@H](C)NC(=O)CNC(=O)[C@H](CO)NC(=O)[C@H](CO)NC(=O)[C@@H]1CCCN1C(=O)CNC(=O)CNC(=O)[C@H](C)NC(=O)[C@H](CC(C)C)NC(=O)[C@H](CC(C)C)NC(=O)[C@H](Cc1c[nH]c2ccccc12)NC(=O)[C@H](CC(N)=O)NC(=O)[C@@H](NC(=O)[C@H](Cc1ccccc1)NC(=O)[C@H](CCC(=O)O)NC(=O)C(C)(C)NC(=O)[C@@H](NC(=O)[C@H](C)NC(=O)[C@H](CCC(N)=O)NC(=O)[C@H](CCCCN)NC(=O)[C@H](CC(=O)O)NC(=O)[C@H](CC(C)C)NC(=O)[C@H](Cc1ccc(O)cc1)NC(=O)[C@@H](NC(=O)[C@H](CO)NC(=O)[C@H](Cc1ccc(O)cc1)NC(=O)[C@H](CC(=O)O)NC(=O)[C@H](CO)NC(=O)[C@@H](NC(=O)[C@H](Cc1ccccc1)NC(=O)[C@@H](NC(=O)CNC(=O)[C@H](CCC(=O)O)NC(=O)CSCC(=O)NCCN1C(=O)CSC1=O)[C@@H](C)O)[C@@H](C)O)[C@@H](C)CC)C(C)C)C(C)C)C(N)=O)C(=O)O` [Compound 80] (X2-EGTFTSDYSIYLDKQAV[Aib]EFVNWLLAGGPSSGAPPPSK([γGlu-Palmitoyl])-NH2): the maximal response (Emax) in assay [1] (Table 3) amounted to 92%; in assay [1] (Table 3A), 92%; in assay [2] (Table 3), 73%; in assay [2] (Table 3A), 73%. In addition, the EC50 in assay [1] (setting [3]) was 0.1 to 1 nM; in assay [1] (setting [4]), 0.1 to 1 nM; in assay [2] (setting [5]) it was 1 to 10 nM; in assay [2] (setting [6]), 1 to 10 nM.
